Assay [1] has as its target Methionyl-tRNA synthetase (Enterococcus faecalis). The assay can be described thus: Inhibitory activity against Enterococci faecalis methionyl-tRNA synthetase (EfMetRS).
Assay [2] deals with Methionyl-tRNA synthetase (Staphylococcus aureus). Briefly: Inhibitory activity against Staphylococcus aureus methionyl-tRNA synthetase (SaMetRS).
Assay [3] has the same target. The assay is described as above. The source holds these as a separate data set.
Assay [4] shares this target. The assay is described as above. This is another data set of the same source.

We go through 17 compounds from BindingDB's records for doi:10.1016/s0960-894x(03)00298-1 (Cubist Pharmaceutical, 2003).

As a reminder, the IC50 is the concentration needed to halve the response being measured. High values mean a need for much substance, low ones inhibition by little substance. `O=C(O)c1cc(-c2ccc(-c3ccc(Cl)cc3Cl)cc2)n(CCO)n1` [5-(2',4'-Dichloro-biphenyl-4-yl)-1-(2-hydroxy-ethyl)-1H-pyrazole-3-carboxylic acid]: the IC50 worked out at 11.4 µM in assay [1] and 4.46 µM in assay [2]. In the same order, the values of `O=C(O)c1cc(-c2ccc(-c3ccc(Cl)cc3Cl)cc2)n(-c2ccccn2)n1` [5-(2',4'-Dichloro-biphenyl-4-yl)-1-pyridin-2-yl-1H-pyrazole-3-carboxylic acid] are 1.93 µM and 0.63 µM. In assay [2], `O=C(O)c1cc(-c2ccc(-c3ccc(Cl)cc3Cl)cc2)n(-c2cccnc2)n1` [5-(2',4'-Dichloro-biphenyl-4-yl)-1-pyridin-3-yl-1H-pyrazole-3-carboxylic acid] showed an IC50 of 0.3 µM.

Regarding `O=C(O)c1cc(-c2ccc(-c3ccccc3)cc2)n(-c2ccc(Cl)cc2Cl)n1` [5-Biphenyl-4-yl-1-(2,4-dichloro-phenyl)-1H-pyrazole-3-carboxylic acid], half-maximal inhibition in assay [3] (IC50) required 40.9 µM. `O=C(NCc1nnn[nH]1)c1cc(-c2ccc(-c3ccc(Cl)cc3Cl)cc2)n(-c2cccnc2)n1` [5-(2',4'-Dichloro-biphenyl-4-yl)-1-pyridin-3-yl-1H-pyrazole-3-carboxylic acid (1H-tetrazol-5-ylmethyl)-amide]: the results for the IC50 in assay [1] and in assay [2] were 3.7 µM and 0.13 µM, respectively. In the case of `O=C(O)c1cc(-c2ccc(-c3ccc(Cl)cc3Cl)cc2)n(Cc2ccncc2)n1` [5-(2',4'-Dichloro-biphenyl-4-yl)-1-pyridin-4-ylmethyl-1H-pyrazole-3-carboxylic acid], the IC50 in assay [3] was 0.5 µM. That is a sub-micromolar value. As for `CCn1nc(C(=O)O)cc1-c1ccc(-c2ccc(Cl)cc2Cl)cc1` [5-(2',4'-Dichloro-biphenyl-4-yl)-1-ethyl-1H-pyrazole-3-carboxylic acid], the IC50 in assay [4] turned out to be 1.02 µM.

`COc1ccccc1-n1nc(C(=O)O)cc1-c1ccc(-c2ccc(Cl)cc2Cl)cc1` [5-(2',4'-Dichloro-biphenyl-4-yl)-1-(2-methoxy-phenyl)-1H-pyrazole-3-carboxylic acid]: the half-maximal inhibitory concentration (IC50) amounted to 17.8 µM in assay [1] and 1.51 µM in assay [4]. In the case of `O=C(O)Cn1nc(C(=O)O)cc1-c1ccc(-c2ccc(Cl)cc2Cl)cc1` [1-Carboxymethyl-5-(2',4'-dichloro-biphenyl-4-yl)-1H-pyrazole-3-carboxylic acid], the IC50 in assay [4] came to 3.42 µM.

Regarding `O=C(O)c1cc(-c2ccc(-c3ccc(Cl)cc3Cl)cc2)n(Cc2cccnc2)n1` [5-(2',4'-Dichloro-biphenyl-4-yl)-1-pyridin-3-ylmethyl-1H-pyrazole-3-carboxylic acid], the IC50 in assay [3] is 0.66 µM. For `O=C(O)c1cc(-c2ccc(-c3ccc(Cl)cc3Cl)cc2)n(-c2ccc(Cl)cc2Cl)n1` [5-(2',4'-Dichloro-biphenyl-4-yl)-1-(2,4-dichloro-phenyl)-1H-pyrazole-3-carboxylic acid], the results for the 50% inhibitory concentration (IC50) in assay [1] and in assay [3] were 8.99 µM and 4.88 µM, respectively. As for `O=C(O)c1cc(-c2ccc(-c3ccc(Cl)cc3Cl)cc2)n(-c2ccccc2)n1` [5-(2',4'-Dichloro-biphenyl-4-yl)-1-phenyl-1H-pyrazole-3-carboxylic acid], the IC50 in assay [3] stood at 5.47 µM.

The compound `NC(=O)c1cc(-c2ccc(-c3ccc(Cl)cc3Cl)cc2)n(-c2ccccn2)n1` [5-(2',4'-Dichloro-biphenyl-4-yl)-1-pyridin-2-yl-1H-pyrazole-3-carboxylic acid amide] registered an IC50 in assay [2] of 2.95 µM.

In assay [3], `O=C(O)c1cc(-c2ccc(-c3ccc(Cl)cc3Cl)cc2)nn1Cc1ccccn1` [5-(2',4'-Dichloro-biphenyl-4-yl)-2-pyridin-2-ylmethyl-2H-pyrazole-3-carboxylic acid] came in with an IC50 of 2.68 µM. For the compound `COc1ccc(-n2nc(C(=O)O)cc2-c2ccc(-c3ccc(Cl)cc3Cl)cc2)cc1` [5-(2',4'-Dichloro-biphenyl-4-yl)-1-(4-methoxy-phenyl)-1H-pyrazole-3-carboxylic acid], in assay [4], half-maximal inhibition (IC50) required 10.5 µM.

For the compound `O=C(O)c1cc(-c2ccc(-c3ccc(Cl)cc3Cl)cc2)n(Cc2ccccc2)n1` [1-Benzyl-5-(2',4'-dichloro-biphenyl-4-yl)-1H-pyrazole-3-carboxylic acid], the IC50 in assay [1] came out at 29.9 µM; in assay [4], 3.94 µM. Turning to `O=C(O)c1cc(-c2ccc(-c3ccc(F)c(Cl)c3)cc2)n(-c2ccc(Cl)cc2Cl)n1` [5-(3'-Chloro-4'-fluoro-biphenyl-4-yl)-1-(2,4-dichloro-phenyl)-1H-pyrazole-3-carboxylic acid], the IC50 in assay [3] worked out at 17.2 µM.
